One compound from patent publication US8809344B2, “Compounds, compositions, and methods for control of hepatitis C viral infections” (priority 2008, dated 2014) can be followed below.

Test [1] deals with all other chimeric replicons and the genotype 2a parental replicon. In words: Other chimeric replicons and genotype 2a parental replicon in Huh7.5 cells. The conditions noted are these: Hepatitis C virus. It counts as cell-based. The text has this: That NS4B is the target of 80978 was confirmed by a complementary approach. The differential response to 80978 by HCV genotype 1b and 2a replicons allowed the use of chimeric replicons to narrow down the region of the HCV genotype 1b NS4B coding region that confers sensitivity to 80978. The nucleotide sequence of the wild type HCV genotype 2a NS4B is provided as SEQ ID NO: 7 and the wild type HCV genotype 2a NS4B protein sequence is provided as SEQ ID NO:8. Using a plasmid containing an 80978-resistant stable HCV genotype 2a subgenomic reporter replicon cDNA, six replacement, or chimeric constructs were made, where the regions encoding the following amino acids of NS4B were replaced with the regions encoding the corresponding amino acids of NS4B from HCV genotype 1b: (i) 7-254, (ii) 7-52, (iii) 53-254, (iv) 219-254, (v) 7-52 and 219-254, and (vi) 53 to 218. The full-length NS4B protein is 261 amino acids in length and is provided as SEQ ID NO:2. Thus, if any of these segments of NS4B from genotype 1b are sufficient to confer 80978-sensitivity to a genotype 2a HCV replicon, it will render the chimeric genotype 1b/genotype 2a replicon sensitive to the compound.
Response to 80978 was measured initially in unselected cells. […] All of the chimeric and wild type control constructs were responsive to Cyclosporin A (CsA).
On the technique in general: In antiviral work, replicon cells carry a viral genome segment that copies itself.

In test [2] the test system is stable genotype 1b (Con1 strain) subgenomic replicon. In words: Log10 decrease in HCV replicon RNA in Clone VI cells, quantitative RT-PCR relative to GAPDH. It counts as cell-based, hepatitis C virus. The conditions noted are these: 20 μM compound, 72 hours. How it is done:
To quantify the effect of compound on HCV RNA replicon levels by measuring HCV replicon RNA levels, the Clone VI cell line, a human hepatoma cell line that contains a stable genotype 1b (Con1 strain) subgenomic replicon with the adaptive Ser1179Ile mutation was used (U.S. Pat. No. 7,049,428). Cells were seeded into 12-well plates (40,000 cells per well) in the absence of Geneticin™ (Invitrogen, Carlsbad, Calif., USA) and treated in triplicate four hours later with 20 μM compound, with a final DMSO percentage of 1% in a total volume of 1 ml. Total RNA was extracted 72 hours later, and HCV and GAPDH RNA levels were quantified via quantitative RT-PCR. The log 10 decrease in HCV RNA levels was quantified relative to GAPDH RNA levels using the comparative Ct (threshold cycle) method (Applied Biosystems, Foster City, Calif., USA).
Additional compounds of formula (I) shown in FIG. 1 were also shown to inhibit HCV RNA replication. The effects of various compounds of formula (I) on HCV RNA replicon levels were determined by measuring HCV replicon RNA levels in cells treated with various concentrations of the compounds. […] Total RNA was extracted 72 hours later, and HCV and GAPDH RNA levels were quantified via quantitative RT-PCR. […]

In test [3] the test system is genotype 1b (Con1 strain) replicon with NS4B F1809L mutation. The experiment in a line: F1809L mutant reporter replicon IVT RNA in Huh7.5 cells. The conditions noted are these: Hepatitis C virus. It counts as cell-based. The text has this: To identify nucleotide changes that confer resistance to 80978, replicon RNA was reverse transcribed and amplified from total RNA extracted from 80978-resistant and control Clone A cells. […] One silent mutation at amino acid 1771 was also observed. Each mutation was introduced independently into a stable genotype 1b (Con1 strain) subgenomic reporter replicon plasmid via site-directed mutagenesis. […] The sequence of the wild type NS4B encoding sequence is provided as SEQ ID NO:1, the sequence of the mutated NS4B nucleotide sequence encoding the F1809V mutation is provided as SEQ ID NO:3, and the sequence of the mutated NS4B nucleotide sequence encoding the F1809L mutation is provided as SEQ ID NO:5. The sequence of the wild type NS4B protein is provided as SEQ ID NO:2, the sequence of the mutated NS4B protein with the F1809V mutation is provided as SEQ ID NO:4, and the sequence of the mutated NS4B nucleotide sequence encoding the F1809L mutation is provided as SEQ ID NO:6. […] A differential response was observed between cells electroporated with different replicon RNAs.

For the compound `O=C(NCc1cccs1)c1nn2c(c1Cl)N[C@H](c1ccco1)C[C@@H]2C(F)(F)F` (single isomer, unassigned) [Compound 80978], the 50% effective concentration (EC50) in test [1] was > 20 µM; in test [3], > 22.5 µM. Also, the “Log RNA decrease at [μM]” value in test [2] was 1.16 @ 20 μM.

The term EC50 denotes the concentration giving half of the maximal effect.
